Assay [1] deals with T1, ASCT2 (Homo sapiens, UniProt Q15758).
T1 sequence (Q15758 1-541): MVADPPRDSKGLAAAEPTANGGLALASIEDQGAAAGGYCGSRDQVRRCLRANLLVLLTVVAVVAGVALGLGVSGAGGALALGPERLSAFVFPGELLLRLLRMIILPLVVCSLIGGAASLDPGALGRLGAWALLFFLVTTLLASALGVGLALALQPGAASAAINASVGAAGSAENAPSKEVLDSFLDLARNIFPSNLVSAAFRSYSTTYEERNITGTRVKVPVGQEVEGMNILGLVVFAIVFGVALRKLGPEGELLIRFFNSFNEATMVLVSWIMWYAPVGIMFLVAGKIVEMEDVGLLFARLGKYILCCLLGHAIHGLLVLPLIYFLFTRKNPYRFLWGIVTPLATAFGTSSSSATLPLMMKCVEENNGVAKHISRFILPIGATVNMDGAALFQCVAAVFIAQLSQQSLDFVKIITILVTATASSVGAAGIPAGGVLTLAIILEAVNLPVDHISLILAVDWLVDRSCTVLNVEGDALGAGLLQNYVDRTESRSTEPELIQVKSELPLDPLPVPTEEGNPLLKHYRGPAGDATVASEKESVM
As to the kind of experiment: Antibody labeling of Bx-PC3 cells after incubation in Bzl-Ser solution. In kind it is cell-based. Further details: endogenous in cells; host or cells: Bx-PC3 (BxPC-3) pancreatic cancer cells. The note with it: 50 mM Bzl-Ser.

Assay [2] deals with T1, ASCT2. As to conditions: background statement; read-out: Km (Michaelis constant, affinity for ASCT2); cited from earlier work.

Structures are written as SMILES.

For the compound `N[C@@H](COCc1ccccc1)C(=O)O` [Bzl-Ser, O-benzyl-L-serine], the “antibody labeling, cells incubated in Bzl-Ser solution vs PBS+10% FBS” value on ASCT2 [1] is on record as “no difference observed”.

In the case of `NC(=O)CC[C@H](N)C(=O)O` [glutamine, L-glutamine], the Km (usually the substrate concentration at which the rate is half of its maximum) on ASCT2 [2] was 20 µM.
